From article PMC6893557, “Discovery of Non-peptide Small Molecule Allosteric Modulators of the Src-family Kinase, Hck” (Frontiers in Chemistry, 2019) come the findings set out here.

Where “and” joins values, the source holds several entries; their conditions need not be identical. Identical values can stand only once.

The target of assay [1] is T1, Fgr U-SH32-L (Homo sapiens, UniProt P09769).
T1 construct: the complete regulatory region, consisting of the unique, SH3, and SH2 domains plus the SH2-kinase linker (U32L protein); made in house; host or cells: E. coli
T1 sequence (P09769 1-257 limits assumed): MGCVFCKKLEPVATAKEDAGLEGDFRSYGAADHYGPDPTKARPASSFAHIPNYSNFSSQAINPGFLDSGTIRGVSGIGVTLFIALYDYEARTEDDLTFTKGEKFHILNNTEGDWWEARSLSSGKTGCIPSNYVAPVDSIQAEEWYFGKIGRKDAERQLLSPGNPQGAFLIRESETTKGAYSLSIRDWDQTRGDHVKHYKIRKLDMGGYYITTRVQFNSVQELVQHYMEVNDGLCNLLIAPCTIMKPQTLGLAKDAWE
Description: SPR binding, Fgr unique-SH3-SH2-linker protein. To be noted: kinetic KD, 1:1 Langmuir model, ± S.E., NI = no interaction; for Kd: read-out: KD, Fgr proteins U-SH32-L. A general note: Surface plasmon resonance follows binding to a sensor surface in real time, without labels.
Description: (§1) SPR analysis was performed on a Reichert 4SPR instrument (Reichert Technologies) using four-channel carboxymethyl dextran hydrogel biosensor chips (Reichert #13206066). Recombinant purified Hck proteins were covalently attached to the chip surface via standard amine coupling chemistry (Grover et al., [2015]). Compounds were prepared in 20 mM Tris-HCl, pH 8.3, 150 mM NaCl, and 1% DMSO and flowed past the immobilized proteins and a reference channel at a flow rate of 50 μL/min for 60 s over a range of concentrations. The binding reaction was followed by dissociation for 120 s, followed by surface regeneration using 10 mM HEPES, pH 7.5, containing 150 mM NaCl, 3 mM EDTA, and 0.05% polysorbate 20, at a flow rate of 50 μL/min for 30 s. All sensorgrams were recorded in triplicate, corrected for buffer effects, and fitted with the 1:1 Langmuir binding model using the TraceDrawer software (Reichert).

The target in assay [2] is T2, Fgr-YEEI (Homo sapiens, UniProt P09769, G526I/P525E/Q524E).
T2 construct: near-full-length Fgr, lacking only the unique domain and encoding the same modified C-terminal tail as near-full-length Hck (Fgr-YEEI); made in house; host or cells: Sf9 insect cells
T2 sequence (P09769 77-526 Q524E/P525E/G526I): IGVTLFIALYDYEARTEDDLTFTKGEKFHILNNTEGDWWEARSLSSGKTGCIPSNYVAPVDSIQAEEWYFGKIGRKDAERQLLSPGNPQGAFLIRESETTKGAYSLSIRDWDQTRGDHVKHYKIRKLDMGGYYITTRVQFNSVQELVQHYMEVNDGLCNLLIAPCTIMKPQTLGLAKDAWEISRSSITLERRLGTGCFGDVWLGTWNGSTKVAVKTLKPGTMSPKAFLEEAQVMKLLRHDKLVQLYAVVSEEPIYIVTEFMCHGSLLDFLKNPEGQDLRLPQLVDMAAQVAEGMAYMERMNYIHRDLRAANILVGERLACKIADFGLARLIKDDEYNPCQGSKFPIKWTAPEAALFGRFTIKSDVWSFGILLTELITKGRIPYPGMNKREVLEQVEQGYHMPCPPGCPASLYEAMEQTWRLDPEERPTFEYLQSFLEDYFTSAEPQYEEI
Description: SPR binding, near-full-length Fgr. To be noted: kinetic KD, 1:1 Langmuir model, ± S.E., NI = no interaction; for Kd: read-out: KD, Fgr proteins Fgr-YEEI.
Description: as §1

The target of assay [3] is T3, Fgr SH32 (Homo sapiens, UniProt P09769).
T3 construct: including a dual SH3-SH2 domain protein; made in house; host or cells: E. coli
T3 sequence (P09769 77-241 limits assumed): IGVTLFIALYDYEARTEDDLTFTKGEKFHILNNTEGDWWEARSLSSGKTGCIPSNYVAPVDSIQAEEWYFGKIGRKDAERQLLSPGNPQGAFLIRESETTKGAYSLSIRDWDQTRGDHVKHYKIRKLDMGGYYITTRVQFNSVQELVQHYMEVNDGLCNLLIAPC
Description: SPR binding, Fgr dual SH3-SH2 domain protein. The settings on record: kinetic KD, 1:1 Langmuir model, ± S.E., NI = no interaction; for Kd: read-out: KD, Fgr proteins SH32.
Description: as §1

Assay [4] has as its target T4, Hck U-SH32-L (Hck-U32L) (Homo sapiens, UniProt P08631).
T4 construct: including the N-terminal unique region, followed by the SH3 and SH2 domains, and the SH2-kinase linker; made in house; host or cells: E. coli
Description: SPR binding, Hck unique-SH3-SH2-linker protein. To be noted: kinetic KD, 1:1 Langmuir model, ± S.E., NI = no interaction, read-out: KD, Hck proteins U-SH32-L.
Description: as §1
(§2) Interaction was monitored to equilibrium, followed by a dissociation phase. The resulting sensorgrams were best-fit to determine the kinetic rate constants and corresponding KD values, where KD = koff/kon. As positive controls, we also monitored the interaction of peptide ligands for the SH3 and SH2 domains.

In assay [5] the target is T5, Hck SH32-L (Homo sapiens, UniProt P08631).
T5 construct: an SH3-SH2-linker protein lacking the N-terminal unique domain; made in house; host or cells: E. coli
T5 sequence (P08631 72-256 limits assumed): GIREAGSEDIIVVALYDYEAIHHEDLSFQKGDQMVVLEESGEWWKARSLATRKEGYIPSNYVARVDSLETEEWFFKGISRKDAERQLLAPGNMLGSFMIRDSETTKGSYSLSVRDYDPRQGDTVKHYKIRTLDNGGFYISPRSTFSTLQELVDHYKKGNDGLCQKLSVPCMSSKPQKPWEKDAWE
Description: SPR binding, Hck SH3-SH2-linker protein. To be noted: for Kd: kinetic KD, 1:1 Langmuir model, ± S.E., NI = no interaction, read-out: KD, Hck proteins SH32-L.
Description: as §1, §2

Assay [6] deals with T6, Hck U32L protein (Homo sapiens, UniProt P08631).
T6 construct: including the N-terminal unique region, followed by the SH3 and SH2 domains, and the SH2-kinase linker; made in house; host or cells: E. coli
T6 sequence (P08631 22-256): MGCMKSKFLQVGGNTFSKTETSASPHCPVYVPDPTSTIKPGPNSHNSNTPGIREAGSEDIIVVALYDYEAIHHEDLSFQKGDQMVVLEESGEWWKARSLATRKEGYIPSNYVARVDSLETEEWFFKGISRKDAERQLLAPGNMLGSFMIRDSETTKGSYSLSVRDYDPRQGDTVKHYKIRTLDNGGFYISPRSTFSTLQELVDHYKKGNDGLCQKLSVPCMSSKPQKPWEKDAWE
Description: Fluorescence polarization (FP) assay: displacement of VSL12 probe peptide from Hck-U32L. The assay is classed as binding. The settings on record: IC50, inhibition of VSL12 peptide FP signal, Hck-U32L plus fluorescent VSL12 probe; two independent determinations ± S.E., each data point in triplicate. As to the method:
For the FP assay, the peptide was labeled with 6-carboxyfluorescein at its N-terminus. […] Molecular weight and purity of all peptides were verified by mass spectrometry. Stock solutions (10 mM) were prepared in a 1:1 mixture of DMSO and FP assay buffer (20 mM Tris-HCl, pH 8.3) for the labeled peptide and FP assay buffer for the unlabeled peptide. Stock solutions were stored at −20°C.
FP assays were performed in low-volume black 384-well plates with a non-binding surface (Corning #3676). Peptides and proteins were added to each well in FP assay buffer for a final assay volume of 20 μL and mixed by shaking for 5 min at room temperature. […] Raw fluorescence intensity was also read at the same wavelengths for each assay.
Screening libraries were purchased from ChemDiv (10,000 non-peptide peptidomimetic library) and ChemBridge (50,000 compound diversity library). Each library compound was screened at 50 μM and a final DMSO concentration of 1%. […] Each plate contained 32 wells of the Hck U32L protein plus probe peptide and DMSO as positive controls, and 32 wells of mutant Hck U32L-W118A protein plus probe peptide and DMSO as negative controls. Results for each compound test well were ranked by z score analysis according to the formula: z = (sample FP—mean FPsamples)/standard deviationsamples (Shun et al., [2011]). Potential hit compounds, defined as those that inhibited the FP signal by at least 30% and/or with z scores < −3.0, were then retested in quadruplicate using the FP assay under screening assay conditions.
The target protein for HTS consisted of the entire regulatory region of the p59 form of human Hck, including the N-terminal unique region, followed by the SH3 and SH2 domains, and the SH2-kinase linker (referred to hereafter as the Hck “U32L” protein). […] The principle of the assay is illustrated in Figure 2A. Binding of the probe peptide to the SH3 domain in the target protein slows its rotation, resulting in an increase in the FP signal. Library compounds that interfere with probe binding or stabilize SH3-linker interaction reduce the FP signal, and score as hits.

Assay [7] concerns the target T7, Hck-YEEI (Homo sapiens, UniProt P08631, Q523E/Q524E/Q525I).
T7 construct: a near-full-length form of Hck consisting of the SH3, SH2 and kinase domains plus the tyrosine-phosphorylated tail; made in house; host or cells: Sf9 insect cells
Description: SPR binding, near-full-length Hck. To be noted: kinetic KD, 1:1 Langmuir model, ± S.E., NI = no interaction, read-out: KD, Hck proteins Hck-YEEI.
Description: as §1, §2

T4 sequence (P08631 22-256): as above
T7 sequence (P08631 78-526 Q523E/Q524E/Q525I limits assumed): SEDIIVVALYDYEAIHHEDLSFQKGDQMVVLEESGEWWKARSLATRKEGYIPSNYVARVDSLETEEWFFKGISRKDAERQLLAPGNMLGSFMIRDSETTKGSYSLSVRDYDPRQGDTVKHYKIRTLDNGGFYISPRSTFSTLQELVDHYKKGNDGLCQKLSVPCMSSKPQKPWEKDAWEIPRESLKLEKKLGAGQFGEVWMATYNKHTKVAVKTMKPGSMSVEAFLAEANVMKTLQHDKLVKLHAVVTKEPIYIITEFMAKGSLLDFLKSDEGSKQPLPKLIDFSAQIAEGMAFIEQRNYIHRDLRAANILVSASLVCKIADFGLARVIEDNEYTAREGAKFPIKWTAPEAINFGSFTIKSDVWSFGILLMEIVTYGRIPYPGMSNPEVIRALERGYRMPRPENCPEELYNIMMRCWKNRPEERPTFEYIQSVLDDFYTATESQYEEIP

As a reminder, the Kd is the constant that tells how readily two partners part at equilibrium. For orientation: IC50 means the midpoint of a concentration-inhibition curve. For `CC(C)Nc1ccnc(NCc2cccnc2Oc2ccc(F)cc2F)n1` [Compound 1], the Kd was 131 ± 6 µM in assay [1]; 141 ± 4 µM in assay [2]; 104 ± 3 µM in assay [3]; 36 ± 4 µM in assay [4]; 83 ± 19 µM in assay [5]; 103 ± 4 µM in assay [7]. For the same compound, the IC50 in assay [6] was 52.9 µM and 53.2 µM.
Regarding `Cc1cnc(NCc2ccccc2-n2ccnc2)nc1N(C)C` [Compound 2], the Kd in assay [1] amounted to 70 ± 5 µM; in assay [2] it was 107 ± 1 µM; in assay [3], 352 ± 1 µM; in assay [4] it was 30 µM; in assay [5] it was 96 ± 2 µM; in assay [7] it was 93 ± 1 µM. In addition, in assay [5], the “Fold increase of KD with SH3-SH2-linker protein lacking the unique domain vs Hck-U32L” value is on record as “about 3 fold”. For the same compound, in assay [5], the “Reduction of extent of binding with SH3-SH2-linker protein lacking the unique domain vs Hck-U32L” value is on record as “about 50%”. Further, in assay [6], the IC50 is 11.3 µM and 16.7 µM.
As for `CNc1ccnc(NCCC23CCCN2CCC3)n1` [Compound 3], the “KD, Fgr proteins U-SH32-L” value in assay [1] is listed as “did not bind”. Also, the “KD, Fgr proteins Fgr-YEEI” value in assay [2] is reported as “did not bind”. In addition, the “KD, Fgr proteins SH32” value in assay [3] was “did not bind”. Further, the Kd in assay [4] is 55 ± 5 µM; in assay [5], 905 ± 18 µM; in assay [7], 142 ± 1 µM. Moreover, in assay [6], the IC50 is 36.3 µM and 31 µM.
As to `Cc1cnc(NCc2ccccc2CN2CCCC2=O)nc1N(C)C` [Compound 4], the Kd in assay [1] amounted to 102 ± 4 µM; in assay [2], 64 ± 2 µM; in assay [3] it was 69 ± 1 µM; in assay [4], 831 µM; in assay [5] it was 338 ± 4 µM; in assay [7], 180 ± 1 µM. Moreover, the IC50 in assay [6] is 36.1 µM and 59.6 µM.
